Laboratory results from patent US9187472B2 (AbbVie Inc., priority 2012, dated 2015).

Key:
[1] = biological target: NAMPT (human, recombinant, C-terminally His-tagged) (Homo sapiens, UniProt P43490); assay: Time-Resolved Fluorescence Resonance Energy Transfer (TR-FRET) Binding Assay of NAMPT; conditions: without substrates; 6.8 nM NAMPT, 200 nM probe, 3 hours equilibration
Procedure, shortened: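 Read-out is the time-resolved FRET ratio Em520/Em495 (excitation 337 nm) between a terbium anti-His antibody (1 nM) on the enzyme and an Oregon Green 488-labelled nicotinamide-competitive inhibitor probe (200 nM). Enzyme was 6.8 nM, DMSO 2%, pH 7.5 HEPES buffer; 3 h room-temperature equilibration preceded reading.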

NAMPT = NAMPT (Homo sapiens, UniProt P43490); assay: TR-FRET Binding Assay of NAMPT with PRPP; conditions: with 200 μM PRPP and 2.5 mM ATP; 2 nM NAMPT, 2 nM probe, 16 hours equilibration
Procedure, shortened: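 NAMPT 2 nM + probe 2 nM + Tb-anti-His Ab 1 nM; PRPP 200 μM, ATP 2.5 mM, DMSO 2%; 16 h equilibration before TR-FRET read.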

PC3 cells = assay: NAMPT Cell Proliferation Assay; type: cell-based; conditions: Homo sapiens, PC-3, 120 h, 5 days incubation, cell viability by Cell Titer Glo
Procedure, shortened: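 Following overnight attachment in RPMI with 10% heat-inactivated FBS, PC3 cells at 500 per well receive compounds spanning 10 μM down to 1×10^−5 μM. Growth is assessed by luminescent viability read after 5 days.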

Sequence of NAMPT (human, recombinant, C-terminally His-tagged) (P43490 whole entry): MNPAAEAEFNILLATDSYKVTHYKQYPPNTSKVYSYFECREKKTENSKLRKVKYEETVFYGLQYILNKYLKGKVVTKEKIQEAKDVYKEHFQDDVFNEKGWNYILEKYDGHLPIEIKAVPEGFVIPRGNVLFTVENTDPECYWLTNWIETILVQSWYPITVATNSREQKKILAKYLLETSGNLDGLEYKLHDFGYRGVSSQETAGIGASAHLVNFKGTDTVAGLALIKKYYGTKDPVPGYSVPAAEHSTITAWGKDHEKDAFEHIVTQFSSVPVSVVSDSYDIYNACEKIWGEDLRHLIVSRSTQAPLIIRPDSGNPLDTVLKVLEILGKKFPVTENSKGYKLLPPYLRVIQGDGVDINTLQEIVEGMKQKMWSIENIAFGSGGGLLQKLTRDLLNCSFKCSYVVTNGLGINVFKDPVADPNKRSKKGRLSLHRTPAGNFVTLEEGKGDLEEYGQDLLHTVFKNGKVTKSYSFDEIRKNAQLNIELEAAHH
Sequence of NAMPT (P43490 whole entry): as above

SMILES | IC50 [1] [nM] | IC50 (NAMPT) [nM] | IC50 (PC3 cells) [nM]
O=C(NCc1ccc2nccn2c1)c1cnc(N(C[C@H]2CCCO2)C(=O)C2CCOCC2)s1 [Example 147, N-(imidazo[1,2-a]pyridin-6-ylmethyl)-2-{[(2R)-tetrahydrofuran-2-ylmethyl](tetrahydro-2H-pyran-4-ylcarbonyl)amino}-1,3-thiazole-5-carboxamide] | 251 | 0.63 | 6.69
COCCC(=O)N(C[C@@H]1CCCO1)c1ncc(C(=O)NCc2ccc3nccn3c2)s1 [Example 148, N-(imidazo[1,2-a]pyridin-6-ylmethyl)-2-{(3-methoxypropanoyl)[(2S)-tetrahydrofuran-2-ylmethyl]amino}-1,3-thiazole-5-carboxamide] | 6230 | 1.35 | 41.5
O=C(NCc1ccc2nccn2c1)c1cnc(N(C[C@@H]2CCCO2)C(=O)C2CCOC2)s1 (stereo partly drawn) [Example 149, N-(imidazo[1,2-a]pyridin-6-ylmethyl)-2-{(tetrahydrofuran-3-ylcarbonyl)[(2S)-tetrahydrofuran-2-ylmethyl]amino}-1,3-thiazole-5-carboxamide] | > 10000 | 4.86 | 26.6
O=C(NCc1ccc2nccn2c1)c1cnc(N(C[C@@H]2CCCO2)C(=O)C2CCOCC2)s1 [Example 150, N-(imidazo[1,2-a]pyridin-6-ylmethyl)-2-{[(2S)-tetrahydrofuran-2-ylmethyl](tetrahydro-2H-pyran-4-ylcarbonyl)amino}-1,3-thiazole-5-carboxamide] | 6110 | 3.49 | 36.2
COCCNC(=O)N(CC1CCOCC1)c1ncc(C(=O)NCc2ccc3nccn3c2)s1 [Example 151, N-(imidazo[1,2-a]pyridin-6-ylmethyl)-2-{[(2-methoxyethyl)carbamoyl](tetrahydro-2H-pyran-4-ylmethyl)amino}-1,3-thiazole-5-carboxamide] | 7150 | 5.54 | 76.1
CC(C)OCCNC(=O)N(CC1CCOCC1)c1ncc(C(=O)NCc2ccc3nccn3c2)s1 [Example 152, N-(imidazo[1,2-a]pyridin-6-ylmethyl)-2-[{[2-(propan-2-yloxy)ethyl]carbamoyl}(tetrahydro-2H-pyran-4-ylmethyl)amino]-1,3-thiazole-5-carboxamide] | 3600 | 6.91 | 28.3
COCCNC(=O)N(C[C@H]1CCCO1)c1ncc(C(=O)NCc2ccc3nccn3c2)s1 [Example 153, N-(imidazo[1,2-a]pyridin-6-ylmethyl)-2-{[(2-methoxyethyl)carbamoyl][(2R)-tetrahydrofuran-2-ylmethyl]amino}-1,3-thiazole-5-carboxamide] | 118 | 1.88 | 3.73
CC(C)OCCNC(=O)N(C[C@H]1CCCO1)c1ncc(C(=O)NCc2ccc3nccn3c2)s1 [Example 154, N-(imidazo[1,2-a]pyridin-6-ylmethyl)-2-({[2-(propan-2-yloxy)ethyl]carbamoyl}[(2R)-tetrahydrofuran-2-ylmethyl]amino)-1,3-thiazole-5-carboxamide] | 194 | 2.6 | 6.67
COCCNC(=O)N(C[C@@H]1CCCO1)c1ncc(C(=O)NCc2ccc3nccn3c2)s1 [Example 155, N-(imidazo[1,2-a]pyridin-6-ylmethyl)-2-{[(2-methoxyethyl)carbamoyl][(2S)-tetrahydrofuran-2-ylmethyl]amino}-1,3-thiazole-5-carboxamide] | 3370 | 2.3 | 17.6
CC(C)OCCNC(=O)N(C[C@@H]1CCCO1)c1ncc(C(=O)NCc2ccc3nccn3c2)s1 [Example 156, N-(imidazo[1,2-a]pyridin-6-ylmethyl)-2-({[2-(propan-2-yloxy)ethyl]carbamoyl}[(2S)-tetrahydrofuran-2-ylmethyl]amino)-1,3-thiazole-5-carboxamide] | 3270 | 3.18 | 28
CC(C)OCCNC(=O)N(CC1CCOC1)c1ncc(C(=O)NCc2ccc3nccn3c2)s1 (stereo not drawn) [Example 157, N-(imidazo[1,2-a]pyridin-6-ylmethyl)-2-[{[2-(propan-2-yloxy)ethyl]carbamoyl}(tetrahydrofuran-3-ylmethyl)amino]-1,3-thiazole-5-carboxamide] | 4140 | 1.1 | 29.2
O=C(NCc1ccc2nccn2c1)c1cnc(N2CC(c3ccc(Cl)cc3)OC2=O)s1 (stereo not drawn) [Example 158, 2-[5-(4-chlorophenyl)-2-oxo-1,3-oxazolidin-3-yl]-N-(imidazo[1,2-a]pyridin-6-ylmethyl)-1,3-thiazole-5-carboxamide] | 341 | 6.39 | 191

Further lines, results first:

IC50 [1] [nM] | IC50 (NAMPT) [nM] | IC50 (PC3 cells) [nM] | SMILES
2490 | 2.16 | 233 | CC(C)C(=O)N1CCC(Oc2ccc(C(=O)NCc3ccc4nccn4c3)cc2)CC1 [Example 159, N-(imidazo[1,2-a]pyridin-6-ylmethyl)-4-{[1-(2-methylpropanoyl)piperidin-4-yl]oxy}benzamide]
3220 | 1.26 | 915 | CC(=O)N1CCC(Oc2ccc(C(=O)NCc3ccc4nccn4c3)cc2)CC1 [Example 160, 4-[(1-acetylpiperidin-4-yl)oxy]-N-(imidazo[1,2-a]pyridin-6-ylmethyl)benzamide]
1310 | 2.89 | 635 | O=C(NCc1ccc2nccn2c1)c1ccc(OC2CCN(C(=O)C3CC3)CC2)cc1 [Example 161, 4-{[1-(cyclopropylcarbonyl)piperidin-4-yl]oxy}-N-(imidazo[1,2-a]pyridin-6-ylmethyl)benzamide]
2570 | 2.09 | 43.6 | O=C(NCc1ccc2nccn2c1)c1ccc(OC2CCN(C(=O)C3CCOCC3)CC2)cc1 [Example 162, N-(imidazo[1,2-a]pyridin-6-ylmethyl)-4-{[1-(tetrahydro-2H-pyran-4-ylcarbonyl)piperidin-4-yl]oxy}benzamide]
2100 | 6.29 | 96.4 | O=C(NCc1ccc2nccn2c1)c1ccc(OC2CCN(C(=O)C3COCCO3)CC2)cc1 (stereo not drawn) [Example 163, 4-{[1-(1,4-dioxan-2-ylcarbonyl)piperidin-4-yl]oxy}-N-(imidazo[1,2-a]pyridin-6-ylmethyl)benzamide]
2460 | 3.46 | 101 | O=C(NCc1ccc2nccn2c1)c1ccc(OC2CCN(C(=O)[C@@H]3CCCO3)CC2)cc1 [Example 164, N-(imidazo[1,2-a]pyridin-6-ylmethyl)-4-({1-[(2S)-tetrahydrofuran-2-ylcarbonyl]piperidin-4-yl}oxy)benzamide]
1530 | 1.61 | 137 | O=C(NCc1ccc2nccn2c1)c1ccc(OC2CCN(C(=O)[C@H]3CCCO3)CC2)cc1 [Example 165, N-(imidazo[1,2-a]pyridin-6-ylmethyl)-4-({1-[(2R)-tetrahydrofuran-2-ylcarbonyl]piperidin-4-yl}oxy)benzamide]
1430 | 1.81 | 97.1 | CC(C)(O)C(=O)N1CCC(Oc2ccc(C(=O)NCc3ccc4nccn4c3)cc2)CC1 [Example 166, 4-{[1-(2-hydroxy-2-methylpropanoyl)piperidin-4-yl]oxy}-N-(imidazo[1,2-a]pyridin-6-ylmethyl)benzamide]
